Results: ChEMBL document CHEMBL1201862, “PubChem BioAssay data set” (2004)
Calls of active or inactive are those of the source.

Columns and labels:
[1] = target: T1, Sentrin-specific protease 6 (Homo sapiens, UniProt Q9GZR1); type: functional;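 note: Luminescence-based dose-response confirmatory assay of SENP6 inhibition, following up an ultra-high-throughput screen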
T1 sequence (Q9GZR1 whole entry): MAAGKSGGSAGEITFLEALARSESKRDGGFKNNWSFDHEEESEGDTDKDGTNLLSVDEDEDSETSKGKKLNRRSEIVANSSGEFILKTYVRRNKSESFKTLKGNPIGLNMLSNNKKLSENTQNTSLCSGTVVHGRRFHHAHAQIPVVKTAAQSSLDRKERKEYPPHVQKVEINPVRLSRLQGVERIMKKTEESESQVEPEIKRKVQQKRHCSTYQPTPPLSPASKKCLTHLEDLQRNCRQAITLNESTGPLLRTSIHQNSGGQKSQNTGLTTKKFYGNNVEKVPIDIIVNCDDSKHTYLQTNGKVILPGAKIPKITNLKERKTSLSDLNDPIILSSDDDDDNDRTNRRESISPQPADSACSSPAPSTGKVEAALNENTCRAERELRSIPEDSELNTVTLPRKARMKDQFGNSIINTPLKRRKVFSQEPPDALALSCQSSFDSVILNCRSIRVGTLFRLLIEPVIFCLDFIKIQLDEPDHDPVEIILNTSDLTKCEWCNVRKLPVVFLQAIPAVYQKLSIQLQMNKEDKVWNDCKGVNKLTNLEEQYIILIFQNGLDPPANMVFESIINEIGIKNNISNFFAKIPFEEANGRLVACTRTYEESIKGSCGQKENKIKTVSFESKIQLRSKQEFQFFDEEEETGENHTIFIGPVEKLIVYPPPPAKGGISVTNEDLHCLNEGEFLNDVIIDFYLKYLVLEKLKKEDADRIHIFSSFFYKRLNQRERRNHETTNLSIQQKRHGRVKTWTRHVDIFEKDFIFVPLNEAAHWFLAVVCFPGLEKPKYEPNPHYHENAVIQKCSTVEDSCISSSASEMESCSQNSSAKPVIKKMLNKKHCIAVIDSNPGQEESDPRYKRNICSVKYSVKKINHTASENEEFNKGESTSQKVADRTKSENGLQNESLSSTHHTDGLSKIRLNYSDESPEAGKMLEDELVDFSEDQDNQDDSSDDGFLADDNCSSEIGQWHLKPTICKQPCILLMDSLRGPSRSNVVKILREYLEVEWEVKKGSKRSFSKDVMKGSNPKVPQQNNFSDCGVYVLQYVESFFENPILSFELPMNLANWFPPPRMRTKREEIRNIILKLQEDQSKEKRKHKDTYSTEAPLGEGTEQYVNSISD

[2] = target: T2, Sentrin-specific protease 8 (Homo sapiens, UniProt Q96LD8); type: functional;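 note: luminescence read-out of SENP8 inhibition, dose-response confirmation following an ultra-high-throughput screen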
T2 sequence (Q96LD8 whole entry): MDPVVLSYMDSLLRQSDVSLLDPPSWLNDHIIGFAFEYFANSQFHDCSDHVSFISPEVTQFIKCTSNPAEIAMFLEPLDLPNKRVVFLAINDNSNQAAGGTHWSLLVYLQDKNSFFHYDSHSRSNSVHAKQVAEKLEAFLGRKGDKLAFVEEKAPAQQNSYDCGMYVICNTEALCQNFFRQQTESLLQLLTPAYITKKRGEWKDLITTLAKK

[3] = target: T3, Sentrin-specific protease 7 (Homo sapiens, UniProt Q9BQF6); type: functional;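 note: Luminescence-based dose-response confirmation of ultra-high-throughput screening hits, measuring inhibition of SENP7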
T3 sequence (Q9BQF6 whole entry): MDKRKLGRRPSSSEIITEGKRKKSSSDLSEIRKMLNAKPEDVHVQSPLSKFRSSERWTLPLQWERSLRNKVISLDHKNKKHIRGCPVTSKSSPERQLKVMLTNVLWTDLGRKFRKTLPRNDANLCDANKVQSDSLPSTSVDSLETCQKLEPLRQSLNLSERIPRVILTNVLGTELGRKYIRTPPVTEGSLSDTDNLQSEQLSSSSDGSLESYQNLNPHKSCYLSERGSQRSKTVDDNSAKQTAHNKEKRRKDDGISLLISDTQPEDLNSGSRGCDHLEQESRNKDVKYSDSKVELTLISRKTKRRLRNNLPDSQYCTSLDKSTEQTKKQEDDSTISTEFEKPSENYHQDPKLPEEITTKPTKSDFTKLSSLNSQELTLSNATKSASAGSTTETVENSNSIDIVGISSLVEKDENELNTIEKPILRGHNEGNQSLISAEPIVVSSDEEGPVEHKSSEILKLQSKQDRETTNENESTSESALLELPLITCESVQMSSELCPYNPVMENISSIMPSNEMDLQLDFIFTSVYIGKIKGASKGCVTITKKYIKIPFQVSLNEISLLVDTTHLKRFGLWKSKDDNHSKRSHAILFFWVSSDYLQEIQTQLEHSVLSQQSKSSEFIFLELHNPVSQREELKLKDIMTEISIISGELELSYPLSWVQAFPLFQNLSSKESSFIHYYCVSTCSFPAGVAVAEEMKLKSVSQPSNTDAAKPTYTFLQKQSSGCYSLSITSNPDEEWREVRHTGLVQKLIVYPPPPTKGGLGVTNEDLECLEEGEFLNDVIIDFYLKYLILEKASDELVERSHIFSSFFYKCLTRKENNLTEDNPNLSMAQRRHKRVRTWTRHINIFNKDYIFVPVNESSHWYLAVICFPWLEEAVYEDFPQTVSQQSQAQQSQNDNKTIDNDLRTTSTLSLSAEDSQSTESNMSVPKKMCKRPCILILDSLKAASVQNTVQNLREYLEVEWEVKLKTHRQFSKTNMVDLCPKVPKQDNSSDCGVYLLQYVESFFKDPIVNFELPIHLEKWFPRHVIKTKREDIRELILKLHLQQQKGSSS

Caspase-3 = target: T4, Caspase-3 (Homo sapiens, UniProt P42574); type: functional;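 note: Dose-response selectivity test against caspase-3 for candidate inhibitors of sentrin-specific proteases (SENPs)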
T4 sequence (P42574 whole entry): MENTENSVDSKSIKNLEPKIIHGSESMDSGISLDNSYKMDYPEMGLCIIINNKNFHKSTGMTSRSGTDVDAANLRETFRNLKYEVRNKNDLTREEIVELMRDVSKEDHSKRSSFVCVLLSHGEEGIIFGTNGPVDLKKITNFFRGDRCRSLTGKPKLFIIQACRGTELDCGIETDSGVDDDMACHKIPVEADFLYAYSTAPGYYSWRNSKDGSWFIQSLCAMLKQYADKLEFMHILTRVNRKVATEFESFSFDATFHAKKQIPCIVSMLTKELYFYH

HEK293 [4] = assay: cells; details: Homo sapiens
HEK293 [5] = assay: cells; details: Homo sapiens; remark: listed apart in the source
[6] = target: T5, Endoribonuclease toxin MazF (Escherichia coli K-12, UniProt P0AE70); assay: substrate-only fluorescence increase artefacts – biochemical, single-stranded RNase substrate, counter-screen for MazEF activator project, dose response (AID 588502); type: functional
T5 sequence (P0AE70 whole entry): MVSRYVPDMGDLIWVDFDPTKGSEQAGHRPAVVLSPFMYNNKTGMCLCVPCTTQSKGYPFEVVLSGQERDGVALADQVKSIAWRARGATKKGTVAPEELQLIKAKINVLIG

[7] = target: T5, Endoribonuclease toxin MazF; assay: activation of MazEF endoribonuclease cleavage – biochemical, fluorescence, single-stranded RNA substrate, uHTS hits, dose response (AID 588481); type: functional
[8] = target: G-protein coupled receptor 55 (Homo sapiens, UniProt Q9Y2T6); assay: selective activators of receptor GPR55 – imaging, U2OS cells, beta-arrestin-GFP redistribution, primary screen (AID 1961); type: functional
G-protein coupled receptor 55, sequence (Q9Y2T6 whole entry): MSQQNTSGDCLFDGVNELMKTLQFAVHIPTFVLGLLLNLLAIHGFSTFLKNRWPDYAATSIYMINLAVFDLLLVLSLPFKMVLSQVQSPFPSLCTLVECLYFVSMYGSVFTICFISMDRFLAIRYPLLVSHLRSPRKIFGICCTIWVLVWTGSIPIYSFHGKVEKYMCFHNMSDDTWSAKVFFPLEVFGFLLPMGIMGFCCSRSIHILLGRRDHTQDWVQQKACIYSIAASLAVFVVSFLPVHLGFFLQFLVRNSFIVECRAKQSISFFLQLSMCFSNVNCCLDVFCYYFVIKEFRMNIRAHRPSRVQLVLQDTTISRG

[9] = target: Potassium voltage-gated channel subfamily KQT member 2 (Rattus norvegicus, UniProt O88943); assay: blockers of KCNQ2 channel current – cell-based, automated electrophysiology, set II, rat KCNQ2, dose response (AID 588637); type: functional
Potassium voltage-gated channel subfamily KQT member 2, sequence (O88943 whole entry): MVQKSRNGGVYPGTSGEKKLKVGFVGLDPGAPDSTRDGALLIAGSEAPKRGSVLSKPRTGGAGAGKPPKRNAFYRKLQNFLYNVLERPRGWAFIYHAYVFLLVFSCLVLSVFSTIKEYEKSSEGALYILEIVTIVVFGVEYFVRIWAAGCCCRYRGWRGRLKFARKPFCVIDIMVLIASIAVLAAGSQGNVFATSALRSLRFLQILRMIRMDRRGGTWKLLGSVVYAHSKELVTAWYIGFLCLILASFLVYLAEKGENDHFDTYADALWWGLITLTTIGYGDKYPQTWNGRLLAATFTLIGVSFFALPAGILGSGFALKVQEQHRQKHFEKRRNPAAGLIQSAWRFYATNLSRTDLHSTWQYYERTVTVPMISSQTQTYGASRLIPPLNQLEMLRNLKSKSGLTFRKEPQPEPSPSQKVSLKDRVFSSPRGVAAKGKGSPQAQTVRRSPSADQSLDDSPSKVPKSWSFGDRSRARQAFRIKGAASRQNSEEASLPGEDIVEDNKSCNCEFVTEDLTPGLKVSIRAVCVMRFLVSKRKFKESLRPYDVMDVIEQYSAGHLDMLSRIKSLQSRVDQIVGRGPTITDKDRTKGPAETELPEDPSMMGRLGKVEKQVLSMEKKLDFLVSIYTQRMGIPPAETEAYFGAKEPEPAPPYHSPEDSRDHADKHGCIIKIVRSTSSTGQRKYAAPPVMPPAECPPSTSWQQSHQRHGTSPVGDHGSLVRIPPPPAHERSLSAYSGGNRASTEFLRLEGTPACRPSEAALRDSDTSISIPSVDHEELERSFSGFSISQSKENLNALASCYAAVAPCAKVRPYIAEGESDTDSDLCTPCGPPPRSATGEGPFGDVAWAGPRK

[10] = target: T6, Type-1 angiotensin II receptor (Homo sapiens, UniProt P30556); assay: antagonism of angiotensin II type 1 receptor – cell-based, uHTS hits, selectivity assay for APJ receptor antagonist project, dose response (AID 463214); type: functional;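 note: antagonist potency against angiotensin II stimulated AT1 response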
T6 sequence (P30556 whole entry): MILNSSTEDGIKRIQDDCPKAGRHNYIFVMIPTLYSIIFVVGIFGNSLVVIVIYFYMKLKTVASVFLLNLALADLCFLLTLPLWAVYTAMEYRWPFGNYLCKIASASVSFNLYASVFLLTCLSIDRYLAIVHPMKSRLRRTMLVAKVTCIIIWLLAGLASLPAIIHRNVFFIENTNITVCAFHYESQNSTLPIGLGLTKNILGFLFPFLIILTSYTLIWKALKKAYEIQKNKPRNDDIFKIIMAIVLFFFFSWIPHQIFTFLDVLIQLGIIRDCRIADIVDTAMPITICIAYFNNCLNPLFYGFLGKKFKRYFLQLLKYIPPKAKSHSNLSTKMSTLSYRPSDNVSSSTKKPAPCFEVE

[11] = target: SWI/SNF-related matrix-associated actin-dependent regulator of chromatin subfamily A member 2 (Homo sapiens, UniProt P51531); assay: Luminescence-based cell-based high throughput dose response assay to identify activators of the function of SWI/SNF related, matrix associated, actin dependent regulator of chromatin, subfamily a, member 2 (SMARCA2, BRM).; type: functional
SWI/SNF-related matrix-associated actin-dependent regulator of chromatin subfamily A member 2, sequence (P51531 whole entry): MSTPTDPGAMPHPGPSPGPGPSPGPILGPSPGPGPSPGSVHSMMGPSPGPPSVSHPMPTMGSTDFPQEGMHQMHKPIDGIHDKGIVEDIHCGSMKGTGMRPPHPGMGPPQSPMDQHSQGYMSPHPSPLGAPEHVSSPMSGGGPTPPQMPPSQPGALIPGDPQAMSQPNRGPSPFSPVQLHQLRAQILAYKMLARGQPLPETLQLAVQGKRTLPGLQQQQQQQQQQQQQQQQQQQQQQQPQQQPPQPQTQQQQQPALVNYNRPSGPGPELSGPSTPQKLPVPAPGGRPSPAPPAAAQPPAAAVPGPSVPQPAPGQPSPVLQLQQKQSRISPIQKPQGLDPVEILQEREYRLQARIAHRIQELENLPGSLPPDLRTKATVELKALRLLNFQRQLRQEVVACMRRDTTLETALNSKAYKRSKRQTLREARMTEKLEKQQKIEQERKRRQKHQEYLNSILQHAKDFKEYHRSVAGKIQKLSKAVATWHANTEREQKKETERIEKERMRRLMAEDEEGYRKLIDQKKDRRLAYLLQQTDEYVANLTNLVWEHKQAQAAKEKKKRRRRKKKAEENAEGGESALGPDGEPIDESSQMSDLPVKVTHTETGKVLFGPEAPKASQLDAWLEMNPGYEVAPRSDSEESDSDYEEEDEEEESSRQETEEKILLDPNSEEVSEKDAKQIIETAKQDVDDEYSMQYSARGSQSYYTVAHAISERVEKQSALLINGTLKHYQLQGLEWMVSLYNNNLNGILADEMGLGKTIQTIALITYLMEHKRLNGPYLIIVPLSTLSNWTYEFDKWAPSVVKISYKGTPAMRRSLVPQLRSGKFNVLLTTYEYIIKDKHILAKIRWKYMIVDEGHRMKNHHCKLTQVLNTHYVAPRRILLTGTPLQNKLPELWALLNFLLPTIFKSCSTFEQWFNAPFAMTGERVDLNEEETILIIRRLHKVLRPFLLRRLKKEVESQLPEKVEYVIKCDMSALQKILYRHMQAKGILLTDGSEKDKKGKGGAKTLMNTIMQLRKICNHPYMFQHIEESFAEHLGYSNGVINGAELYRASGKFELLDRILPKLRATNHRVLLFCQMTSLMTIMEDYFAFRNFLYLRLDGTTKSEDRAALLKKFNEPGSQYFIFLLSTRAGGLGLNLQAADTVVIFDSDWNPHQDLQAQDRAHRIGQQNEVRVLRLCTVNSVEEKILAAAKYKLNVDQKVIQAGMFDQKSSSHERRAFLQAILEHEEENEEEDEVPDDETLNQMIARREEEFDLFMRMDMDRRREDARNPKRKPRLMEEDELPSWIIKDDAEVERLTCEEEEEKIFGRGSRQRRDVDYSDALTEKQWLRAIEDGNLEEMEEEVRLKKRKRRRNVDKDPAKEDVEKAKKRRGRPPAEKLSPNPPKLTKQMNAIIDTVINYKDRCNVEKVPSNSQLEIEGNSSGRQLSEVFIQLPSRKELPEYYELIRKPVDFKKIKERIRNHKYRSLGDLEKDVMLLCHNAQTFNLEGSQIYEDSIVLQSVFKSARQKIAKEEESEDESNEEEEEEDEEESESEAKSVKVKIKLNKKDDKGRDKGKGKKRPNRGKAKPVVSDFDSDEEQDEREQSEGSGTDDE

[12] = Counterscreen for activators of the function of SWI/SNF related, matrix associated, actin dependent regulator of chromatin, subfamily a, member 2 (SMARCA2, BRM): Luminescence-based cell-based high throughput dose response assay to identify non-selective compounds using the VP16 reporter assay.; type: functional
Beta-galactosidase = Beta-galactosidase (Escherichia coli, UniProt Q8VNN2); assay: PubChem AID 485352; type: functional
Beta-galactosidase, sequence (Q8VNN2 whole entry): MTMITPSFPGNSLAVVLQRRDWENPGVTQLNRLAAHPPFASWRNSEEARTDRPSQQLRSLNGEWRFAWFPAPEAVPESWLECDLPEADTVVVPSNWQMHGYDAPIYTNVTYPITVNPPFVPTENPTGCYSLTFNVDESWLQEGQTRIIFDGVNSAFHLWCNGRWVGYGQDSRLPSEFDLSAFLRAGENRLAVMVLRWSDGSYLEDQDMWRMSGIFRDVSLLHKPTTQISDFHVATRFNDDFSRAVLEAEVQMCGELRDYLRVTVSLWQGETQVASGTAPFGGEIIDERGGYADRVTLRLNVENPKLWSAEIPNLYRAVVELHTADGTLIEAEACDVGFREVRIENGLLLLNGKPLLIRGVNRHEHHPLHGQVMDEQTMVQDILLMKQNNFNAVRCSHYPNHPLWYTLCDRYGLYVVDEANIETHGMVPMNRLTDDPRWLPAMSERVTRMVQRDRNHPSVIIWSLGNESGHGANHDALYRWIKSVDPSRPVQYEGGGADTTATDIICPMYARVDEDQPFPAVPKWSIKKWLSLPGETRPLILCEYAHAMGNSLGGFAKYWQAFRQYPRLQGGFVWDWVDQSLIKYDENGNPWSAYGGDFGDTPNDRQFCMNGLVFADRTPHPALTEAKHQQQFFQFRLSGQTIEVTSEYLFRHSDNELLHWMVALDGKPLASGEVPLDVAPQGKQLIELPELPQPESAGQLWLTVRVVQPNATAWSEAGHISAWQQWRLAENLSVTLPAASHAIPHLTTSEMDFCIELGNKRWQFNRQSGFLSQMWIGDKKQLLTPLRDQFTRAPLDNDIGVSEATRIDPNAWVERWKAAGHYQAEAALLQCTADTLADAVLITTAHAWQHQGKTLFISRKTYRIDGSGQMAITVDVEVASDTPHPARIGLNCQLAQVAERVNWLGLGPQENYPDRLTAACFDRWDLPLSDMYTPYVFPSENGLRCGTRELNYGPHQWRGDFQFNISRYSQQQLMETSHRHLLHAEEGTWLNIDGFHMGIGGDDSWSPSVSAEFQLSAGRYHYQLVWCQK

[13] = target: Benomyl/methotrexate resistance protein (Candida albicans, UniProt P28873); assay: Candida albicans Mdr1 pump inhibition curves – singleplex, Cherry Pick1 hits, dose response (AID 588608); type: functional
Benomyl/methotrexate resistance protein, sequence (P28873 whole entry): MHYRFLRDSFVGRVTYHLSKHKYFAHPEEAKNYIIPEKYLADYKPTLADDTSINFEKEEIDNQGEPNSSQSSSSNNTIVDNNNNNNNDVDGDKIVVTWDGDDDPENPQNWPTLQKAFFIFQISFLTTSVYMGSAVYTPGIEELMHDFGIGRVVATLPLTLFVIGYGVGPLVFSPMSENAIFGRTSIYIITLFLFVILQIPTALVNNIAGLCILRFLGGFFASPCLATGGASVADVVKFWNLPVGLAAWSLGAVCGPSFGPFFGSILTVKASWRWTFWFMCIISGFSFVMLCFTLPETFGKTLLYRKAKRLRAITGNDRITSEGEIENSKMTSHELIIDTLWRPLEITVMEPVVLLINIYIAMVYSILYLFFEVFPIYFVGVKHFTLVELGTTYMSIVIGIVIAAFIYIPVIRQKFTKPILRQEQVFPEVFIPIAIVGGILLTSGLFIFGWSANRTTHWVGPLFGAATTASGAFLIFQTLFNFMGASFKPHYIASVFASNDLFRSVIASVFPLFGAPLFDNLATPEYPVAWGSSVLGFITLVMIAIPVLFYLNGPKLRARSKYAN

[14] = target: T7, Rac GTPase-activating protein 1 (Homo sapiens, UniProt Q9H0H5); assay: blockers of MgcRacGAP-driven Rac1 GTP hydrolysis – biochemical, ADP Hunter fluorescence, primary and confirmatory, confirmation (AID 624330); type: functional
T7 sequence (Q9H0H5 whole entry): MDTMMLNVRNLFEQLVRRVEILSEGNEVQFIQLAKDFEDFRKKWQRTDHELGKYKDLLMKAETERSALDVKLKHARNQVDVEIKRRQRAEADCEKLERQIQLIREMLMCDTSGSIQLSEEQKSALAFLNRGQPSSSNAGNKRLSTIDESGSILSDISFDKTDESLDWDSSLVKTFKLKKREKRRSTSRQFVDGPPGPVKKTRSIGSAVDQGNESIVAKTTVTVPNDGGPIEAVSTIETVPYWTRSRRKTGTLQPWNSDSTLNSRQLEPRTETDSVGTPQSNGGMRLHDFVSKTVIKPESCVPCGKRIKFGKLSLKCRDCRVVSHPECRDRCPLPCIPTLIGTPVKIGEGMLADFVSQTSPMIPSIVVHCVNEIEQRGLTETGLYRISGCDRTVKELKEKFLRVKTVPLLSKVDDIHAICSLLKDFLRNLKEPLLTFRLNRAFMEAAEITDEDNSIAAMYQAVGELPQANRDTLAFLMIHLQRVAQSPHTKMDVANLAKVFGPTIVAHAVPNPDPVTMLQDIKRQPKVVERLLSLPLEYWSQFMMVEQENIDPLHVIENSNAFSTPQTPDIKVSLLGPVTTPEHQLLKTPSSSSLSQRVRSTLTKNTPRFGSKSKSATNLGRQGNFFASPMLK

[15] = target: T8, Polyadenylate-binding protein 1 (Homo sapiens, UniProt P11940); assay: MLLE domain peptide-binding blockers, IC50 – biochemical, fluorescence polarization, FITC-PAM2 peptide, dose response (AID 602259); type: functional; details: read-out: IC50_Mean
T8 sequence (P11940 whole entry, the tested form may be a part): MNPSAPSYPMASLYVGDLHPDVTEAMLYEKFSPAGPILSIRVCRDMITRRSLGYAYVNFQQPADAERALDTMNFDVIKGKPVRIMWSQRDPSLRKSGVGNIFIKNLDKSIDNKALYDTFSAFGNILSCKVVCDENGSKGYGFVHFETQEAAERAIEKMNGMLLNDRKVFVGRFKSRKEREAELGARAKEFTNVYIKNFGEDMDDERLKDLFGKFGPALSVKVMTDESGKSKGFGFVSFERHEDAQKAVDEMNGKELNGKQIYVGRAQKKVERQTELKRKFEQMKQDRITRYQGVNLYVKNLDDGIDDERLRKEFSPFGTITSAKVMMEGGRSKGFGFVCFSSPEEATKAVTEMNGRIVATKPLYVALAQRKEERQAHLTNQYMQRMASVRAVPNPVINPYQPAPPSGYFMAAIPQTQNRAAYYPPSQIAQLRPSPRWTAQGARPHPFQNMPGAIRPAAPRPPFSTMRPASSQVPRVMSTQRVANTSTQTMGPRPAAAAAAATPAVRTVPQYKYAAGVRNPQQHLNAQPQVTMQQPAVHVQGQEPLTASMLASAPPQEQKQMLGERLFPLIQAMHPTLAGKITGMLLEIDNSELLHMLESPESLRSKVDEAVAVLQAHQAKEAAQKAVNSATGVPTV

[16] = Luminescence Cell-Based Dose Retest to Confirm Inhibitors of Cancer Stem Cells. [Related pubchem assays (depositor defined):AID2717, AID2721]; type: functional; details: Homo sapiens
[17] = microbe, parasite or virus in culture; type: functional; details: Mycobacterium tuberculosis
[18] = target: T8, Polyadenylate-binding protein 1; assay: MLLE binding blockers, Cy5 peptide tracer – biochemical, fluorescence polarization, Cy5-PAM2 peptide, secondary, miRNA deadenylation inhibitor project, dose response (AID 602260); type: functional; details: read-out: IC50_Mean
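Throughout, for AC50: cells exposed to compound for roughly 70 hours or longer before luminescence read.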

Compound: O=C1/C(=C/c2cccs2)Sc2ccccc21
- IC50 [1]: 2.36 µM (active)
- IC50 [2]: 2.41 µM (active)
- IC50 [3]: 2.11 µM (active)
- IC50 (Caspase-3): 3.44 µM (active)

Compound: COc1ccc(/N=c2\oc3cc(O)ccc3cc2C(=O)NCC2CCCO2)c(OC)c1 (stereo not drawn)
- EC50 (HEK293 [4]): > 59.6 µM (inactive)
- EC50 (HEK293 [5]): > 59.6 µM (inactive)
- EC50 [6]: > 99 µM (inactive)
- EC50 [7]: > 99 µM (inactive)

Compound: CCOC(=O)N1CCC(N(CCOC)C(=O)Nc2ccc(Cl)c(Cl)c2)CC1
- EC50 [8]: 2.65 µM (active)
- IC50 [9]: 0.99 µM (active)

Compound: Cn1c(CNc2ccc(O)cc2)nc2ccccc21
- EC50 [6]: > 99 µM (inactive)
- EC50 [7]: > 99 µM (inactive)

Compound: COc1cccc(Nc2nc(-c3ccc4c(c3)OCCO4)cs2)c1
- IC50 [1]: 20.3 µM (active)
- IC50 [2]: 30.3 µM (active)
- IC50 [3]: 7.97 µM (active)
- IC50 (Caspase-3): 40.2 µM (active)

Compound: O=C(CNc1cccc(Cl)c1)c1ccc(Br)cc1
- IC50 [10]: 15 µM (active)
- EC50 [11]: > 91.2 µM (inactive)
- EC50 [12]: > 91.2 µM (inactive)
- EC50 (Beta-galactosidase): > 40 µM (inactive)

Compound: COCCn1c(=S)[nH]c2sc3c(c2c1=O)CCCC3
- EC50 [13]: 0.012 µM (active)
- IC50 [14]: 38.7 µM (active)

Compound: Cc1csc(N=C(S)Nc2cccc(Cl)c2)n1
- IC50 [15]: > 66 µM (inactive)
- AC50 [16]: 7.09 µM (active)
- IC50 [10]: > 40 µM (not active)
- CC50 [17]: 33.1 µM (active)
- EC50 (Beta-galactosidase): > 40 µM (inactive)
- IC50 [18]: > 66 µM (inactive)

Compound: O=c1/c(=C\c2ccc3c(c2)OCO3)sc2n1CCCN=2
- IC50 [1]: 33.6 µM (active)
- IC50 [2]: 34.1 µM (active)
- IC50 [3]: 12.6 µM (active)
- IC50 (Caspase-3): 17 µM (active)

Compound: CC1Oc2ccccc2N(CC(=O)N(Cc2ccccc2)Cc2ccccn2)C1=O (stereo not drawn)
- IC50 [9]: 1 µM (active)
